Experimental data reported in US8460925B2, “Methods for culturing mammalian taste cells” (priority 2004, dated 2013).

Columns and labels:
[1] = tested on: cultured taste cells; assay: Response of cultured taste cells to taste stimuli by Ca-imaging (fura-2); type: cell-based, rat; conditions: elevation of intracellular calcium
Method: Taste cells employed are isolated as described in Example 1 and cultured for 1 week or 2 months on rat tail collagen type 1-coated coverslips.
(§1) Ca-imaging is performed as follows. The coverslips are incubated for 15-30 minutes with calcium sensitive dye in Modified MHNK ringer's solution (80 mM NaCl, 5 mM KCl, 1 mM MgCl2, 1 mM CaCl2, 1 mM Na-pyruvate, and 20 mM Hepes-Na, pH 7.2 with osmolarity adjusted to 300-310 by 5M NaCl) supplemented with […] (Molecular Probes Inc., Eugene, Oreg.) and 20 mg/ml PLURONIC® F127 (Molecular Probes Inc.). The calcium sensitive dye fura-2 AM is cleaved to fura-2 which is fluorescent and can be detected.
After incubation, coverslips are placed in a recording chamber and continuously bathed with Modified MHNK Ringer's solution that is applied as superfusion.
The stimuli (Denatonium benzoate 2 mM and 0.5 mM, Acesulfame K 250 ppm, Monosodium glutamate (MSG) 3 mM, Cycloheximide 25 μM, Glycine 125 mM, and High K buffer (modified Modified MHNK ringer's solution with 5 mM NaCl, 80 mM KCl, 1 mM MgCl2, 1 mM CaCl2, 1 mM Na-pyruvate, and 20 mM Hepes-Na, pH 7.2 with osmolarity adjusted to 300-310 by 5M NaCl) are applied to the coverslip by switching the superfusion to the stimulus solution, which allows for a complete change of bath solutions in the chamber within 10 seconds.
Calcium imaging recordings are performed using standard imaging techniques as described by Restrepo D., M. Zviman and N. E. Rawson, “The measurement of intracellular calcium in chemosensory cells”, in: Methods in Chemosensory Research, Ed. by A. Spielman and J. Brand. CRC Press, 1995. […] Emitted light from fura-2 in the cells under 200× magnification is filtered at 510 nm and recorded with a cooled CCD camera (Olympix, Perkin Elmer Life Sciences, Bethesda Md.). The excitation wavelength is 340-380 nm and the emission wavelength is 510 nm using a wide band filter. Images are digitalized using a Merlin Imaging Workstation (Perkin Elmer Life Sciences, Bethesda Md.), which controls illuminator, camera, and acquisition, and performs the image ratioing and the display of pseudocolor images.
Stimuli are diluted in Modified MHNK ringer's solution and applied via a gravity-flow superfusion apparatus for about 10-60 seconds, depending on the stimulus. […] Typically several cells are tested.

[2] = biological target: T1, human T2R16 (Homo sapiens, UniProt Q9NYV7); assay: Calcium imaging of cultured taste cells transfected with hT2R16; type: cell-based
T1 construct: expressed in transfected cells; host or cells: primary cultured rat taste cells on rat tail collagen-1-coated coverslips
T1 sequence (Q9NYV7 1-291): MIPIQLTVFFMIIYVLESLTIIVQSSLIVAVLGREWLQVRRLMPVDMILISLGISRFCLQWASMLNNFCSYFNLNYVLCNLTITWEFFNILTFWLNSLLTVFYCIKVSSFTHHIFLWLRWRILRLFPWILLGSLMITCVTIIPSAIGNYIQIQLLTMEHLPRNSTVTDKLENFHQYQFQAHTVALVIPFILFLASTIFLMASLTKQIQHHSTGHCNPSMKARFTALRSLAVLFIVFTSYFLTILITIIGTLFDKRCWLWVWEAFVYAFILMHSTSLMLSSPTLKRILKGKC
Method: as §1
(§2) Calcium imaging recordings are performed using standard imaging techniques as described by Restrepo D., M. Zviman and N. E. Rawson, “The measurement of intracellular calcium in chemosensory cells”, in: Methods in Chemosensory Research, Ed. by A. Spielman and J. Brand. CRC Press, 1995. Illumination is provided by a LSR SPECTRAMASTER monochromator coupled to the microscope. Emitted light from fura-2 in the cells under 200× magnification is filtered at 510 nm and recorded with a cooled CCD camera (Olympix, Perkin Elmer Life Sciences, Bethesda Md.). The excitation wavelength is 340-380 nm and the emission wavelength is 510 nm using a wide band filter. Images are digitalized using a Merlin Imaging Workstation (Perkin Elmer Life Sciences, Bethesda Md.), which controls illuminator, camera, and acquisition, and performs the image ratioing and the display of pseudocolor images. […]

[3] = biological target: T2, mouse T2R5 (Mus musculus, UniProt Q9JKT4); assay: Calcium imaging of cultured taste cells transfected with mT2R5; type: cell-based
T2 construct: sst (N-terminal export tag; by own knowledge of Bufe et al. 2002, the first 45 residues of rat somatostatin receptor type 3) (N); expressed in transfected cells; host or cells: primary cultured rat taste cells on rat tail collagen-1-coated coverslips
T2 sequence (Q9JKT4 1-300): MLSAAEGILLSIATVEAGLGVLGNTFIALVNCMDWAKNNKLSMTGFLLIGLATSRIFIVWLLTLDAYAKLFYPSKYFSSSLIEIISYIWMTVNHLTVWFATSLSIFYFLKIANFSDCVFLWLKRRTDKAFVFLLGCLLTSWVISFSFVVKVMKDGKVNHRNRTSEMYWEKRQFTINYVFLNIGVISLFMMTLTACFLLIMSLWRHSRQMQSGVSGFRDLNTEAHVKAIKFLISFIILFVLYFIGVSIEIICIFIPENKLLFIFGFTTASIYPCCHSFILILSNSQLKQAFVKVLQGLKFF
Method: as §1, §2

effective concentration for increase in intracellular calcium [2]	Structure (SMILES)	activation of cultured taste cells by taste stimulants as shown by calcium imaging [1]	effective concentration for increase in intracellular calcium [3]
–	N[C@@H](CCC(=O)O)C(=O)[O-].[Na+] [MSG, Monosodium glutamate]	activated	–
1 milliM	OC[C@H]1O[C@@H](Oc2ccccc2)[C@H](O)[C@@H](O)[C@@H]1O [phenyl-beta-D-glucopyranoside]	–	–
–	CC1CC(C)C(=O)C(C(O)CC2CC(=O)NC(=O)C2)C1 (stereo not shown) [Cycloheximide, 3-[2-(3,5-Dimethyl-2-oxocyclohexyl)-2-hydroxyethyl]glutarimide]	activated	1 µM
–	NCC(=O)O [Glycine]	activated	–
–	CC1=CC(=O)NS(=O)(=O)O1.[K] [Acesulfame K, 6-Methyl-1,2,3-oxathiazin-4(3H)-one 2,2-dioxide potassium salt]	activated	–
–	CC[N+](CC)(CC(=O)Nc1c(C)cccc1C)Cc1ccccc1 [Denatonium, Denatonium benzoate]	activated	–
